From patent US4320127A, “Pyrido[3,2-e]-as-triazines” (Edyt Gyogyszervegyeszeti Gyar, priority 1979, dated 1982)
Counter-ions that a name gives are not always drawn. Like-named read-outs stand apart in the source and are kept apart here.

What was measured:
[1] = system: carrageenin oedema of the hind paw; experiment: antiphlogistic (oedema-inhibiting) effect, carrageenin paw oedema; format: in vivo, rats; details: for ED30: Rattus norvegicus; for Therapeutical index: carrageenin oedema
Experimental: The antiphlogistic (oedema-inhibiting) effect was tested on rats. 0.1 ml of a 1% carrageenin solution were injected into the plantar region of one of the hind paws. The volume of the paw was measured just before and 3 hours after the introduction of oedema-provoking agent by a mercury plethysmometer.

[2] = system: reserpine; experiment: reserpine antagonism (Brodie et al.); format: in vivo; details: mice; for ED50: Mus musculus, oral administration; for Therapeutic index: reserpine antagonism, oral
[3] = system: tetrabenazine; experiment: tetrabenazine antagonism (Brodie et al.); format: in vivo; details: mice; for ED50: Mus musculus, oral administration; for Therapeutic index: tetrabenazine antagonism, oral
[4] = in vivo; details: mouse
Experimental: The toxicity of the new compounds according to the invention was determined on mice after oral administration.

[5] = system: hexobarbital-narcosis; experiment: effect on the duration of hexobarbital-narcosis (Kaergaard); details: for ED50: Mus musculus, po; for Therapeutical index: hexobarbital-narcosis, mice, oral
From the text: The effect of the compounds exerted on the duration of hexobarbital-narcosis was orally tested on mice by the method of Kaergaard (Arch. Int. Pharmacodyn. 2 170 (1967)).

[6] = system: motility of mice; experiment: effect on the motility of mice in a Dews apparatus (Borsy et al.); details: for ED50: Mus musculus, po; for Therapeutical index: motility, mice, oral
From the text: The effect of the compounds on the motility of mice was orally tested in a Dews apparatus, by the method of Borsy et al. (Arch. Int. Pharmacodyn. 124 1-2 (1960). The ED50 values and the therapeutical indices are listed in Table 2.

[7] = system: acetic acid writhing; experiment: analgesic effect, acetic acid writhing test; format: in vivo; details: mice, oral; for ED50: Mus musculus, analgesic
Experimental: The analgesic effect of the new compounds was determined on mice at oral administration by the acetic acid writhing test.

[8] = dosage inhibiting the inflammation by 30%, rats, 0.1 ml of 1% carrageenin, 3 hours, read-out: ED30

Compound	ED30 ([1]; 3 h) [mg/kg]	ED50 [2] [mg/kg]	Therapeutic index [2]	ED50 [3] [mg/kg]	Therapeutic index [3]	LD50 ([4]; mice, oral administration) [mg/kg]	ED50 [5] [mg/kg]	Therapeutical index [5]	ED30 [1, 8] [mg/kg]	Therapeutical index ([1]; rats)	ED50 [6] [mg/kg]	Therapeutical index [6]	ED50 [7] [mg/kg]	Therapeutical index [7]	LD50 ([4]; po) [mg/kg]
CC(=O)Oc1ccccc1C(=O)O [Acetylsalicylic acid, reference compound]	180														
CN(C)CCC=C1c2ccccc2CCc2ccccc21 [Amitriptyline, reference compound]		65	3.46	12	18.75										
CCCCCCC1=Nc2cccnc2N(C(=O)CC)N1.Cl [Example 1, 3-n-hexyl-1-propionyl-1,2-dihydropyrido[3,2-e]-as-triazine hydrochloride]		300	5	300	5	1500	~400	about 5	200	7.5	~200	7.5			
CCC(=O)N1NC(c2ccc(OC)cc2)=Nc2cccnc21 [Example 5, 3-anisyl-1-propionyl-1,2-dihydropyrido[3,2-e]-as-triazine hydrochloride]		170	4.4	80	9.4	750	~170	4.4	75	10	~170	4.4	52	14.4	
CCC(=O)N1NC(c2cc(OC)c(OC)c(OC)c2)=Nc2cccnc21.Cl [Example 6, 3-(3',4',5'-trimethoxyphenyl)-1-propionyl-1,2-dihydropyrido[3,2-e]-as-triazine hydrochloride]						2000	~350	5.7	~155	12.9	~400	about 5	215	9.3	
CCC(=O)N1NC(CCc2ccccc2)=Nc2cccnc21 [Example 7, 3-phenetyl-1-propionyl-1,2-dihydropyrido-[3,2-e]-as-triazine]						2000	> 400	below 5			> 400	under 5	> 400	below 5	
CCCCCCC1=Nc2cccnc2N(C(=O)c2cccnc2)N1 [Example 11, 3-n-hexyl-1-nicotinoyl-1,2-dihydropyrido-[3,2-e]-as-triazinedihydrochloride]							140	14.3			~200	about 10	~400	5	2000
CCCCC1C(=O)N2C(c3ccccc3)=Nc3cccnc3N2C1=O (stereo not shown) [Example 13, 2-butyl-4-phenylpyrazolo[1,2-a]pyrido[3,2-e]-as-triazine-1,3-dione]									> 400	below 5			> 400	below 5	2000
CCCCCCC1=Nc2cccnc2N(C(=O)c2ccccc2)N1.Cl [Example 18, 3-hexyl-1-benzoyl-1,2-dihydropyrido[3,2-e]-as-triazine hydrochloride]		30	12.7	10	38	380	80	5	~70	5.4			~38	10	
CCCC(C)(COC(N)=O)COC(N)=O [Meprobamate, reference compound]							260	4.2			270	4.1			
CC(=O)Nc1ccc(O)cc1 [Paracetamol, reference compound]													180		
